Converted amounts (≈) assume the structure as drawn. Bounds are passed on as bounds.

One data set relates to S. aureus (ATCC 29213). Kind of data set: Zone of inhibition test of PDLLA-coated titanium wires. The format is cell-based, Staphylococcus aureus. As to conditions: 10% w/w in poly(D,L-lactide) coating, n = 3, mean with standard deviation; day not given. On the procedure:
Titanium wires (diameter 1 mm, Synthes, USA) were coated with Poly(D,L-lactide) (PDLLA, Boehringer Ingelheim, Germany) and incorporated AMP2 at three different concentrations: 10% w/w, 20% w/w, or 30% w/w. Gentamicin/PDLLA (10% w/w) or PDLLA coated wires served as control. Briefly, 100 mg PDLLA was solved in 1.5 ml ethyl acetate and the wires were coated in a dipping procedure. Details of the coating were described previously. Three nails of each group were placed on Mueller-Hinton agar plates plated with S. aureus (ATCC 29213) and the zone of inhibition (ZOI) was quantified after 1, 3, 7, and 14 days using ImageJ software.

Another data set deals with S. aureus MRSA. As to the kind of experiment: Broth microdilution MIC and plating MBC, clinical isolate. The format is cell-based. As to conditions: Staphylococcus aureus, MH++ (with cations), n = 4–8. An excerpt:
(§1) The strains Escherichia coli (ATCC 25922), Enterococcus faecalis (ATCC 29212), Pseudomonas aeruginosa (ATCC 27853), Staphylococcus aureus (ATCC 29213) were used. In addition, following clinical isolates were used: Staphylococcus epidermidis (PIA 8400, isolated from blood cultures[48]), and two Staphylococcus aureus (MRSA and MSSA, both isolated from osteosyntheses material, kindly provided by Andrej Trampuz, Charité).
(§2) To determine the minimal inhibitory concentration (MIC), classical broth microdilution method was performed after protocols from Wiegand et al.[15]. The influence of cations was analyzed by using cation adjusted Mueller-Hinton bouillon II with 20–25 mg/l Ca^2+ and 10–12.5 mg/l Mg^2+ (MH^++; BBL, Germany) or Mueller-Hinton bouillon without cations (MH^−; Merck, Germany) (n = 4–8).
(§3) The maximal concentration of the AMPs was between 200–271 µg/ml. The differences in the AMP concentration are due to the purity of the peptides (absorption coefficient from 5.19 to 9.36).

The subject of the next data set is S. aureus MSSA. The data set is described as above. It is filed as cell-based. As to conditions: Staphylococcus aureus.
Text: as §1, §2, §3

For a further data set, the system named is S. aureus ATCC 29213. As to the kind of experiment: Broth microdilution MIC and plating MBC. The format is cell-based. As to conditions: Staphylococcus aureus. The protocol: as §2, §3
In the next data set the test system is E. faecalis ATCC 29212. As to the kind of experiment: Broth microdilution MIC and plating MBC. The format is cell-based. The note with it: Enterococcus faecalis, ATCC29212, MH++ (with cations), n = 4–8. On the procedure: as §2, §3
The subject of another data set is E. coli ATCC 25922. As to the kind of experiment: Broth microdilution MIC and plating MBC. As to conditions: Escherichia coli, ATCC25922. The format is cell-based. The protocol: as §2, §3
For the next data set, the system named is S. epidermidis PIA 8400. Kind of data set: Broth microdilution MIC and plating MBC. It is filed as cell-based. As to conditions: Staphylococcus epidermidis; for MIC: 1–5 × 10^5 cfu/ml, 37 °C, 18–24 h; for MBC: plated on Columbia-agar overnight 37 °C. On the procedure: as §2, §3
For the next data set, the system named is P. aeruginosa ATCC 27853. Kind of data set: Broth microdilution MIC and plating MBC. It is filed as cell-based. As to conditions: Pseudomonas aeruginosa; for MIC: 37 °C, 18–24 h. The protocol: as §2, §3
Another data set concerns planktonic S. aureus. As to the kind of experiment: MIC by isothermal microcalorimetry, planktonic bacteria. The format is cell-based, Staphylococcus aureus. The note with it: Staphylococcus aureus; MH++, heat flow 24 hours, n = 3; read-out: MIC (calorimetry). On the procedure:
Mueller-Hinton II bouillon with adjusted cations (MH^++; BBL, Germany), Mueller-Hinton bouillon with low cations (MH^+; with 3-4 mg/l Ca^2+ and 5-6 mg/l Mg^2+; Oxoid, Germany) and Mueller-Hinton bouillon without cations (MH^-; Merck, Germany). AMP2 concentrations of 2-33 μg/ml were tested with the three different bouillons and gentamicin concentrations of 0.125-2 μg/ml were analyzed with MH^++. Staphylococcus aureus (ATCC 29213, 300 μl with 10^5 cfu/ml) was added to each microcalorimetry glass ampoule (Waters; […] The ampoules were hermetically sealed and heat flow (W) was measured for 24 hours in the calorimeter TAM III (TA Instruments, USA). […] ROBU […], Germany) in MH^++ bouillon at 37 °C in an aerobe atmosphere for 24 hours. […] Beads were washed again and added to the glass ampoule with fresh MH^++ bouillon. The total heat (J) was measured for 48 hours in the calorimeter. A concentration, which inhibits minimum 90% of biofilm, can be defined as the minimal biofilm inhibitory concentration (MICB). All samples were tested with n = 6.

Data set [1] relates to S. aureus internalized in human primary osteoblast-like cells. Kind of data set: Effect against internalized bacteria. It is filed as cell-based, Staphylococcus aureus. As to conditions: 7.5 μg/ml, n = 7. The protocol: Human primary osteoblast-like cells were cultivated in 24-well plates with cultivation medium until they reached a minimum confluence of 80%. For the experiment, cells were washed and S. aureus (ATCC 29213) in cultivation medium added (~2 × 10^7 cfu/ml). After an incubation of 45 minutes, extracellular bacteria were killed using 200 µg/ml gentamicin dissolved in CM with 10% FCS, without P/S. After 1 hour incubation, gentamicin solution was removed, cells washed three times and AMP2 (33 and 67 µg/ml) in CM with only 1% FCS + no P/S added for 4 and 24 hours. As reference, 7.5 µg/ml rifampicin was used. All incubation steps were done in an incubator with 37 °C, 95% humidity and 5% CO2. For determination of the internalized bacteria, cells were lysed and the supernatant plated on CA plates. Experiment were done with n = 7.

The subject of data set [2] is human primary osteoblast-like cells. It is filed as cell-based. On the procedure: (§4) (1) For the cytotoxicity test, 1 × 10^4 cells were seeded in 48-well plates with cultivation medium (CM) DMEM/Ham’s F-12 (D/H; Biochrom, Germany) + 10% fetal calf serum (FCS; Biochrom, Germany) + 1% penicillin/streptomycin (P/S; Biochrom, Germany) + 0.05 mM L-ascorbic-2 phosphate (L-Asc) + 0.05 mM β-glycerolphosphate (β-Glyc) and incubated overnight at 37 °C, 5% CO2 and 95% relative humidity. After adding the AMPs (3–542 µg/ml - depending on the AMP) or gentamicin (8–1024 µg/ml) in CM with 1% FCS, without Pen/Strep, cells were cultured for three days. Cell viability was determined with an AlamarBlue® assay before adding the AMPs and after 3 days. Alkaline phosphatase activity was measured on day 3.
Alamar Blue® (Biozol, Germany) was done according to the manufacturer’s instruction.

Data set [3] has the same test system. It is filed as cell-based. The protocol: as §4
This is another data set of the same source.

For the next data set, the system named is S. aureus biofilm. Kind of data set: Biofilm assay by microcalorimetry and plating (MBCB). The format is cell-based, Staphylococcus aureus. As to conditions: 128 µg/ml daptomycin, calorimetry and plating (data not shown). On the procedure:
To confirm MIC of the AMP2 by isothermal microcalorimetry, three different bouillons were tested: Mueller-Hinton II bouillon with adjusted cations (MH^++; BBL, Germany), Mueller-Hinton bouillon with low cations (MH^+; with 3–4 mg/l Ca^2+ and 5–6 mg/l Mg^2+; Oxoid, Germany) and Mueller-Hinton bouillon without cations (MH^−; Merck, Germany). AMP2 concentrations of 2–33 µg/ml were tested with the three different bouillons and gentamicin concentrations of 0.125–2 µg/ml were analyzed with MH^++. Staphylococcus aureus (ATCC 29213, 300 µl with 10^5 cfu/ml) was added to each microcalorimetry glass ampoule (Waters; Germany) containing 3.7 ml of AMP or gentamicin solution of (n = 3). The ampoules were hermetically sealed and heat flow (W) was measured for 24 hours in the calorimeter TAM III (TA Instruments, USA). For the biofilm assay, S. aureus biofilm was grown on glass beads (4 mm diameter, 60 µm pores; ROBU Glasfilter-Geräte, Germany) in MH^++ bouillon at 37 °C in an aerobe atmosphere for 24 hours. After washing with sodium chloride, beads were incubated with AMP2 (133, 267, 533 µg/ml) or daptomycin (128 µg/ml) in MH^++ bouillon for another 24 hours at 37 °C. Beads were washed again and added to the glass ampoule with fresh MH^++ bouillon. The total heat (J) was measured for 48 hours in the calorimeter. A concentration, which inhibits minimum 90% of biofilm, can be defined as the minimal biofilm inhibitory concentration (MICB). All samples were tested with n = 6.
Furthermore, the MBC for biofilms (MBCB) where 99.9% of all bacteria are killed was determined. After measurement, bouillon and glass beads were plated on CA plates and incubated for 24 hours at 37 °C in an aerobe atmosphere.

Setting [4] is: ATCC27853, MH++ (with cations), n = 4–8.
The mark [5] stands for this setting: ATCC27853, MH− (without cations), n = 4.

`CNC(C)C1CCC(N)C(OC2C(N)CC(N)C(OC3OCC(C)(O)C(NC)C3O)C2O)O1` (centres unmarked) [gentamicin]: in the data set with S. aureus (ATCC 29213), the ZOI is reported as 10.8 +/- 0.6 cm². Besides, the MIC in the data set with S. aureus MRSA is > 32 µg/mL; in the data set on S. aureus MSSA (MH++ (with cations), n = 4–8), 0.125 µg/mL (≈ 0.262 µM); with S. aureus MSSA (MH− (without cations), n = 4), 0.25 µg/mL (≈ 0.523 µM); in the data set on S. aureus ATCC 29213 (ATCC29213, MH++ (with cations), 37 °C, 18–24 h, n = 4–8), 0.5 µg/mL (≈ 1.05 µM); against E. faecalis ATCC 29212 (37 °C, 5% CO2, 18–24 h) it was 16 µg/mL (≈ 33.5 µM); with E. coli ATCC 25922 (MH− (without cations), 37 °C, 18–24 h, n = 4), 1 µg/mL (≈ 2.09 µM). For the same compound, the MIC came out at 0.25 µg/mL (≈ 0.523 µM) against S. epidermidis PIA 8400 (PIA8400, MH++ (cation adjusted Mueller-Hinton bouillon II), n = 4–8); 0.125 µg/mL (≈ 0.262 µM) against S. epidermidis PIA 8400 (PIA8400, MH− (Mueller-Hinton bouillon without cations), n = 4); 1 µg/mL (≈ 2.09 µM) against P. aeruginosa ATCC 27853 (setting [4]); 0.25 µg/mL (≈ 0.523 µM) in the data set with P. aeruginosa ATCC 27853 (setting [5]); 1 µg/mL (≈ 2.09 µM) in the data set with planktonic S. aureus. In addition, the MBC in the data set with S. aureus MSSA (MH++ (with cations), n = 4–8) is 0.125 µg/mL (≈ 0.262 µM); with S. aureus MSSA (MH− (without cations), n = 4) it was 1 µg/mL (≈ 2.09 µM); in the data set on S. aureus ATCC 29213 (ATCC29213, MH++ (with cations), n = 4–8), 0.5 µg/mL (≈ 1.05 µM); against S. aureus ATCC 29213 (ATCC29213, MH− (without cations), n = 4) it was 1 µg/mL (≈ 2.09 µM); in the data set on E. faecalis ATCC 29212, 32 µg/mL (≈ 67 µM); in the data set with E. coli ATCC 25922 (MH++ (with cations), n = 4–8), 2 µg/mL (≈ 4.19 µM). Also, the MBC in the data set with S. epidermidis PIA 8400 (PIA8400, MH++ (with cations), n = 4–8) stood at 1 µg/mL (≈ 2.09 µM); in the data set with S. epidermidis PIA 8400 (PIA8400, MH− (without cations), n = 4), 0.25 µg/mL (≈ 0.523 µM); against P. aeruginosa ATCC 27853 (setting [4]) it was 4 µg/mL (≈ 8.38 µM); against P. aeruginosa ATCC 27853 (setting [5]), 1 µg/mL (≈ 2.09 µM).

For the compound `CO[C@H]1/C=C/O[C@@]2(C)Oc3c(C)c(O)c4c(O)c(c(/C=N/N5CCN(C)CC5)c(O)c4c3C2=O)NC(=O)/C(C)=C\C=C\[C@H](C)[C@H](O)[C@@H](C)[C@@H](O)[C@@H](C)[C@H](OC(C)=O)[C@@H]1C` [rifampicin, reference compound], the “internalized bacteria compared to 0 μg/ml AMP [= 100%]” value in data set [1] (4 h) came out at 15%; in data set [1] (24 h) it was 0.0006%.

Regarding “RRRIKIRWY [AMP4, 9mer cationic antimicrobial peptide … from an optimized peptide library]”, in data set [2], the “concentrations with no negative effect on cell viability” value (“concentrations with no negative effect” below) was < 251 µg/mL and the “concentrations with significant inhibition of viability compared to the control group” value was ≥ 251 µg/mL.

Consider “RTKKWIVWI [AMP3, 9mer cationic antimicrobial peptide … from an optimized peptide library]”, for which, in data set [2], the “concentrations with no negative effect” value is < 68 µg/mL and the “concentrations with significant inhibition of viability compared to the control group” value is ≥ 68 µg/mL.

As for “WRKFWKYLK [AMP5, 9mer cationic antimicrobial peptide … from an optimized peptide library]”, in data set [2], the “concentrations with no negative effect” value is < 63 µg/mL and the “concentrations with significant inhibition of viability compared to the control group” value was ≥ 63 µg/mL. Moreover, the “concentrations with significant inhibition of alkaline phosphatase activity compared to the control group” value in data set [3] is ≥ 63 µg/mL.

“YRLRVKWKW [AMP1, 9mer cationic antimicrobial peptide … from an optimized peptide library]”: in data set [2], the “concentrations with no negative effect” value is < 100 µg/mL and the “concentrations with significant inhibition of viability compared to the control group” value is ≥ 100 µg/mL. For the same compound, the “concentrations with significant inhibition of alkaline phosphatase activity compared to the control group” value in [3] is “all concentrations”.

For daptomycin [reference compound], in the data set on S. aureus biofilm, the biofilm growth entry was “completely inhibited”.

Values taken from article PMC5431435, “A short artificial antimicrobial peptide shows potential to prevent or treat bone infections” (Scientific Reports, 2017).
